{"source": "patent US20210379088A1", "about": "“CANCER REGRESSION BY INDUCING A REGENERATION-LIKE RESPONSE” (VIB VZW, priority 2018, published 2021)", "key": {"liver": {"system": "liver", "details": "mice, feeding for 5 days with 0.2% cholic acid; cited from earlier work"}, "[1]": {"system": "N-Akt tumors (intrahepatic cholangiocarcinoma)", "assay": "N-Akt intrahepatic cholangiocarcinoma in Apo>hYAP1SA mice, doxycycline-induced hYAP1SA expression in peritumoral hepatocytes", "type": "in vivo, mouse", "experimental": "For intrahepatic delivery of the transposon system (Kang et al., 2011), eight to ten-week-old mice were secured and hydrodynamically injected with 1 μg pCMV/SB11, 4 μg pSBbi-puro-myrAKT-HA, 20 μg of pSBbi-puro-myc-NICD, or 10 μg of cMyc-IRES-NRas via lateral tail vein. For the expression of SB-Cre^ERT2 or inducible Bcl2, 15 μg of pSBbi-puro-Cre^ERT2 or 10 μg of pSBTetON—RH-Flag-Bcl2, respectively, were added to the plasmid mixture. All plasmids were diluted in sterile filtered 0.9% NaCl, and the total volume was adjusted to 10% (in ml) of the total body weight (in grams).\n(§1) For conditional deletion of Yap and Taz, tamoxifen was administered for 5 consecutive days, via intraperitoneal injection at a concentration of 1.6 mg/kg in corn oil. In order to activate the expression of TetON-Bcl2 or human YAP expression in Apo>hYAP^1SA mice, 0.2 mg/ml of doxycycline was diluted in filtered sterile drinking water supplemented with 2.5% sucrose and administered ad libido. Doxycycline containing water bottles were protected from light and replaced every other day.\n(§2) All quantifications were performed using ImageJ software. Quantification of relative tumor area was done by measuring the tumor area (marked by HA-Akt positive cells in N-Akt model, phospho-ERK expression in Myc-Ras model or S100 expression in melanoma model) and the total area (marked by DAPI). […] We inferred absolute tumor load by multiplying the tumor area by the liver weight of each mouse (absolute tumor load (cm^3)=tumor area (cm)×liver weight (grams).\nWe next tested whether overexpression of a constitutively active form of YAP (YAP^1SA; this is the YAP variant carrying the mutation Ser127Ala; see description hereinabove), due to mutation of the main Lats1/2 phosphorylation site, is sufficient to recapitulate the tumor regression caused by Lats1/2 deletion. We used transgenic mice that conditionally overexpressed human YAP^1SA in hepatocytes under the control of a doxycycline (Dox) inducible promoter (TetON system) and where the reverse tetracycline transactivator (rtTA) is expressed under the hepatocyte-specific ApoE promoter (hereafter Apo>hYAP^1SA)(Dong et al., 2007). Upon doxycycline feeding, Apo>hYAP^1SA mice induced hepatocyte proliferation and developed liver overgrowth as previously reported (FIG. 10A,B) (Dong et al. 2007). We then induced N-Akt tumors in Apo>hYAP^1SA mice and induced hYAP^1SA expression after 4 weeks of tumor development by adding doxycycline to their drinking water (FIG. 5A). As expected, YAP protein levels increased in doxycycline treated Apo>hYAP^1SA mice but not in non-treated Apo>hYAP^1SA mice or in doxycycline treated C57BL/6 mice (FIG. 10C). […]"}, "[2]": {"system": "NRAS-mutant metastatic melanoma cells in the liver", "assay": "NRas+/INK4a-/- melanoma liver metastases in Apo>hYAP1SA mice, doxycycline-induced hYAP1SA expression", "type": "in vivo, mouse", "details": "Apo>YAP1SA mice injected with 10.000 melanoma cells; 2 weeks after YAP activation by doxycycline in drinking water", "experimental": "For intrahepatic seeding of tumor cells, mice were hydrodynamically injected with 10.000 mouse melanoma cells (NRas^+/INK4a^−/−) diluted in sterile minimal essential medium (MEM), adjusted to 10% (in ml) of total body weight (in grams). All injected mice were monitored daily and sacrificed in groups at appropriate time points. All experimental and control groups contained 5 to 10 mice.\nas §1\nas §2, with “(grams). […]” for “(grams).”"}, "N-Akt tumors": {"system": "N-Akt tumors", "assay": "Control experiments: effect of tamoxifen or AAV-Cre on N-Akt tumor growth in control mice", "type": "in vivo, mouse", "details": "control mice with N-Akt tumors without floxed-gene deletion (C57BL/6, or Yap fl/fl;Taz fl/fl without SB-CreERT2)", "experimental": "as §1\nAdeno-associated virus serotype 8 (AAV8) expressing CRE recombinase under the hepatocyte specific promoter TBG was purchased from UPenn (AAV8.TBG.PI.Cre.rBG, catalog AV-8-PV1091). Mice received 5×10^11 GC of AAV8.TBG.PI.Cre.rBG diluted in 200 ul of 1× phosphate-buffered saline (PBS) by tail vein injection.\nas §2"}}, "data": [{"smiles": "C[C@H](CCC(=O)O)[C@H]1CC[C@H]2[C@@H]3[C@H](O)C[C@@H]4C[C@H](O)CC[C@]4(C)[C@H]3C[C@H](O)[C@]12C", "note": "[cholic acid]", "values": [{"measurement": "liver size increase", "setting": "liver", "result": 30, "unit": "%"}]}, {"smiles": "C[C@H]1c2cccc(O)c2C(=O)C2=C(O)[C@]3(O)C(=O)C(C(N)=O)=C(O)[C@@H](N(C)C)[C@@H]3[C@@H](O)[C@@H]21", "note": "[doxycycline]", "values": [{"measurement": "survival after tumor initiation", "setting": "[1]; Apo>hYAP1SA mice, two weeks of doxycycline administration", "result": "up to 14 weeks"}, {"measurement": "average survival longer than the control mice", "setting": "[1]; treated Apo>hYAP1SA mice", "result": 4, "unit": "weeks"}, {"measurement": "mice with only a few small tumor remnants", "setting": "[1]; treated Apo>hYAP1SA mice, after 2 weeks of doxycycline", "result": "5/10"}, {"measurement": "treated mice still alive", "setting": "[1]; within 6 weeks of tumor initiation, when half of the control mice had died", "result": "more than 80%"}, {"measurement": "reduction in tumor load", "setting": "[2]", "result": 98, "unit": "%"}]}, {"smiles": "CC/C(=C(\\c1ccccc1)c1ccc(OCCN(C)C)cc1)c1ccccc1", "note": "[tamoxifen]", "values": [{"measurement": "effect on tumor development, growth or total tumor volume", "setting": "N-Akt tumors", "result": "not affected"}]}]}
